Assay results taken from patent US9877961B2, “Anticoagulant reversal agents” (PEROSPHERE INC., priority 2011, dated 2018).
Marks after values point to notes of the source that are not given here.

Legend:
[1] = test system: apixaban (ELIQUIS®) anticoagulation; assay: Rat tail transection bleeding assay, apixaban; type: in vivo; conditions: apixaban, oral; Bleeding assay; minimal in vivo reversal dose; assumes 50% oral bioavailability
Experimental: (§1) Rat tail bleeding assay or rat tail transection assay is an assay that measures blood loss, e.g., blood loss after drug administration. In one embodiment, where the effect of the compound of the invention (e.g., DAP) is being tested, at the Tmax of the anticoagulant, DAP is administered intravenously. After 20 minutes, rat tails are transected approximately 1 mm from the tip, placed in room temperature saline, and blood is collected for 30 minutes and weighed.
(§2) Three rats each were administered 2 mg of rivaroxaban. One rat received a sham reversal containing no DAP, the second received 2.5 mg of DAP, and the third received 12.5 mg DAP. A fourth fat received sham anticoagulant and reversal doses (“sham”). 20 minutes after the reversal dose, tails were transected 1 mm from the tip, placed in room temperature saline, and blood loss was collected for 30 minutes and then weighed.
Same procedures were used with 1.25 mg apixaban (ELIQUIS®) alone or in combination with 5 or 12.5 mg DAP; with 15.5 mg dabigatran etexilate (PRADAXA®) alone or in combination with 5 or 12.5 mg DAP; and with 5 mg edoxaban (LIXIANA®) alone or in combination with 12.5 mg DAP.

[2] = assumption used for Table 3; cited from earlier work
[3] = Binding of anticoagulants to DAP (DLS; summary Tables 2 and 3); conditions: lowest DAP:anticoagulant ratio with association above 50 nm apparent diameter in phosphate buffered saline
[4] = test system: dabigatran (PRADAXA®) anticoagulation; assay: DAP reversal of dabigatran (PRADAXA®) anticoagulation in vivo, aPTT; set-up: species or system rat; conditions: 40 mg/kg oral gavage, 2 hours; baseline 43 seconds
From the text: The activated partial thromboplastin time (aPTT) assay is an assay that measures how long it takes for the blood to clot. Blood samples are collected for direct measurement or in tubes with oxalate and citrate to arrest coagulation by calcium until the assay can be performed. In the assay, a phospholipid, an activator (silica, celite, kaolin, ellagic acid, etc.), and calcium are mixed into the plasma to induce coagulation. The assay measures the time until a thrombus (clot) forms.
A male albino rat, weighing 430 g, was administered 40 mg/kg of PRADAXA® (20 mg PRADAXA®; overdose of PRADAXA®) by oral gavage.
Approximately 2 hours into PRADAXA® treatment, 200 mg/kg DAP (100 mg DAP) was administered as an intravenous bolus injection. Approximately 2 hours later, the rat was administered a dose of 100 mg/kg of DAP (50 mg DAP). In another hour, the rat was administered another dose of 100 mg/kg of DAP (50 mg DAP). aPTT was measured throughout the course of the entire treatment.

[5] = cited from earlier work
[6] = test system: fondaparinux anticoagulation; assay: DAP reversal of fondaparinux (ARIXTRA®) anticoagulation in vivo, chromogenic Factor Xa assay; set-up: species or system rat; conditions: fondaparinux s.c.; Xa kit; 200 mg/kg DAP was the lowest dose administered
Experimental: The anti-factor Xa assay directly measures anti-factor Xa activity. The methodology behind an anti-factor Xa assay is that patient plasma is added to a known amount of excess factor Xa and excess antithrombin. If a factor Xa inhibitor is present in the patient plasma, it will reduce the enzymatic activity of factor Xa. The amount of residual factor Xa is inversely proportional to the amount of anti-Xa agent in the plasma. The amount of residual factor Xa is detected by adding a chromogenic substrate that mimics the natural substrate of factor Xa, making residual factor Xa cleave it, releasing a colored compound that can be detected by a spectrophotometer. […] Results are given in anticoagulant concentration in units/mL of antifactor Xa, such that high values indicate high levels of anticoagulation and low values indicate low levels of anticoagulation.
5 mg/kg fondaparinux was administered subcutaneously to rats. 200 mg/kg DAP was administered intravenously after 2 hours. Activity was measured by chromogenic 510 k cleared Factor Xa Assay (Biophen) at 10, 20, 30 and 60 minutes after DAP administration.

Factor Xa = conditions: cited from earlier work
[7] = test system: rivaroxaban anticoagulation; assay: Rat tail transection bleeding assay, rivaroxaban; type: in vivo; conditions: rivaroxaban, oral; Bleeding assay; minimal in vivo reversal dose; assumes 60% oral bioavailability
Experimental: as §1, §2

DLS Binding Molar Ratio [DAP/drug] [3]	Structure (SMILES)	Reversal Molar Ratio [DAP/drug] [1]	oral bioavailability (assumed) [2]	aPTT after PRADAXA® administration [4]	time to peak steady-state plasma concentration ([5]; patients, 2.5 mg once daily, post-dose)	absolute bioavailability ([5]; subcutaneous injection)	Reversal Molar Ratio [DAP/drug] [6]	potentiation of innate neutralization of Factor Xa by ATIII (Factor Xa)	Reversal Molar Ratio [DAP/drug] [7]
10	COc1ccc(-n2nc(C(N)=O)c3c2C(=O)N(c2ccc(N4CCCCC4=O)cc2)CC3)cc1 [Apixaban, 1-(4-methoxyphenyl)-7-oxo-6-[4-(2-oxopiperidin-1-yl)phenyl]-4,5-dihydropyrazolo[5,4-c]pyridine-3-carboxamide]	8*	50%	–	–	–	–	–	–
–	CCCCCCOC(=O)NC(=N)c1ccc(NCc2nc3cc(C(=O)N(CCC(=O)OCC)c4ccccn4)ccc3n2C)cc1.CS(=O)(=O)O [Dabigatran etexilate, β-Alanine, N-[[2-[[[4-[[[(hexyloxy)carbonyl]amino]iminomethyl]phenyl]amino]methyl]-1-methyl-1H-benzimidazol-5-yl]carbonyl]-N-2-pyridinyl-,ethyl ester, methanesulfonate]	–	5%	81 s	–	–	–	–	–
9	O=C(NC[C@H]1CN(c2ccc(N3CCOCC3=O)cc2)C(=O)O1)c1ccc(Cl)s1 [Rivaroxaban, 5-Chloro-N-({(5S)-2-oxo-3-[4-(3-oxo-4-morpholinyl)phenyl]-1,3-oxazolidin-5-yl}methyl)-2-thiophenecarboxamide]	–	60%	–	–	–	–	–	3*

Structure (SMILES)	DLS Binding Molar Ratio [DAP/drug] [3]	Reversal Molar Ratio [DAP/drug] [1]	oral bioavailability (assumed) [2]	aPTT after PRADAXA® administration [4]	time to peak steady-state plasma concentration ([5]; patients, 2.5 mg once daily, post-dose)	absolute bioavailability ([5]; subcutaneous injection)	Reversal Molar Ratio [DAP/drug] [6]	potentiation of innate neutralization of Factor Xa by ATIII (Factor Xa)	Reversal Molar Ratio [DAP/drug] [7]
CO[C@H]1O[C@H](COS(=O)(=O)[O-])[C@@H](O[C@@H]2O[C@@H](C(=O)[O-])[C@@H](O[C@H]3O[C@H](COS(=O)(=O)[O-])[C@@H](O[C@@H]4O[C@H](C(=O)[O-])[C@@H](O[C@H]5O[C@H](COS(=O)(=O)[O-])[C@@H](O)[C@H](O)[C@H]5NS(=O)(=O)[O-])[C@H](O)[C@H]4O)[C@H](OS(=O)(=O)[O-])[C@H]3NS(=O)(=O)[O-])[C@H](O)[C@H]2OS(=O)(=O)[O-])[C@H](O)[C@H]1NS(=O)(=O)[O-].[Na+].[Na+].[Na+].[Na+].[Na+].[Na+].[Na+].[Na+].[Na+].[Na+] [Fondaparinux, methyl O-2-deoxy-6-O-sulfo-2-(sulfoamino)-α-D-glucopyranosyl-(1→4)-O-β-D-glucopyra-nuronosyl-(1→4)-O-2-deoxy-3,6-di-O-sulfo-2-(sulfoamino)-α-D-glucopyranosyl-(1→4)-O-2-O-sulfo-α-L-idopyranuronosyl-(1→4)-2-deoxy-6-O-sulfo-2-(sulfoamino)-α-D-glucopyranoside, decasodium salt]	3	–	–	–	approximately 3 hours	100%	130	about 300 times	–
